The values below come from publication PMC3108470 (Journal of Medicinal Chemistry, 2011).

Assay [1] has as its target ΔF508-CFTR (Homo sapiens, UniProt P13569, DEL508-508). The assay is described as follows: ΔF508-CFTR potentiator assay, HS-YFP fluorescence quenching. The assay is classed as cell-based. The settings on record: for activity on ΔF508-CFTR: inactive up to 20 μM; for nH (Hill coefficient): FRT cells, forskolin 20 μM, Hill fit.
The subject of assay [2] is guinea pig ileum longitudinal smooth muscle. Kind of assay: Relaxant activity on K+-depolarized.
For assay [3], the system named is guinea pig left atrium. The assay is described as follows: Negative inotropic activity in isolated left atrium driven at 1 Hz.
For assay [4], the system named is guinea pig left atrium. To be noted: at the highest concentration studied; cited from earlier work.
Assay [5] deals with guinea pig right atrium. The settings on record: cited from earlier work; for intrinsic activity, chronotropic effect: at the highest concentration studied.

pEC50: −log10 of the molar value. Some results are limits rather than exact numbers.

With `COC(=O)C1=C(C)NC(C)=C(C(=O)OC)C1c1c(-c2ccccc2OC(F)(F)F)nc2sccn12` [Compound 37], the “activity on ΔF508-CFTR” value in assay [1] was “inactive ^b”.

Regarding `COC(=O)C1=C(C)NC(C)=C(C(=O)OC)C1c1c(-c2cc(OC)ccc2OC)nc2sc(Cl)cn12` [Compound 41], the “activity on ΔF508-CFTR” value in assay [1] is “inactive ^b”.

In the case of `COC(=O)C1=C(C)NC(C)=C(C(=O)OC)C1c1c(-c2cccc(OC(F)(F)F)c2)nc2sccn12` [Compound 38], in assay [1], the “nH (Hill coefficient)” value worked out at 0.81. For the same compound, the “GPILSM relaxant potency, times less potent than nifedipine” value (“GPILSM relaxant potency” for short) in assay [2] was “about 65 times”.

On to `COC(=O)C1=C(C)NC(C)=C(C(=O)OC)C1c1c(-c2ccccc2OC)nc2sccn12` [Compound 35], for which the “activity on ΔF508-CFTR” value in assay [1] was “inactive ^b”.

Consider `C=CCOC(=O)C1=C(C)NC(C)=C(C(=O)OCC=C)C1c1ccc(C(C)(C)C)cc1` [Compound 49, reference compound], for which, in assay [1], the “nH (Hill coefficient)” value was determined as 3.58.

As for `CCOC(=O)C1=C(C)NC(C)=C(C(=O)OCC)C1c1c(-c2ccc(Cl)c(Cl)c2Cl)nc2sccn12` [Compound 26, Diethyl 2,6-Dimethyl-4-(6-(2,3,4-trichlorophenyl)imidazo[2,1-b]thiazol-5-yl)-1,4-dihydropyridine-3,5-dicarboxylate], in assay [1], the “nH (Hill coefficient)” value is reported as 0.44. Besides, the “GPILSM relaxant potency” value in assay [2] was “about 65 times”.

On to `C=CCOC(=O)C1=C(C)NC(C)=C(C(=O)OCC=C)C1c1c(-c2ccc(C(F)(F)F)cc2)nc2sc(C)c(C)n12` [Compound 19, Diallyl 4-(2,3-Dimethyl-6-(4-(trifluoromethyl)phenyl)imidazo[2,1-b]thiazol-5-yl)-2,6-dimethyl-1,4-dihydropyridine-3,5-dicarboxylate], for which the “nH (Hill coefficient)” value in assay [1] amounted to 1.14. Further, the “negative inotropic over chronotropic selectivity ratio” value in assay [3] (EC50 chronotropic / EC50 inotropic) is “about 33 fold”.

Turning to `COC(=O)C1=C(C)NC(C)=C(C(=O)OC)C1c1c(-c2c(OC)ccc(OC)c2[N+](=O)[O-])nc2sccn12` [Compound 46], the “activity on ΔF508-CFTR” value in assay [1] was “inactive ^b”.

With `COC(=O)C1=C(C)NC(C)=C(C(=O)OC)C1c1c(Cl)nc2scc(C)n12` [Compound 33], in assay [1], the “nH (Hill coefficient)” value was determined as 0.82. Moreover, the “negative inotropic effect, times greater than that of nifedipine” value (from here on “negative inotropic effect”) in assay [3] was “about 2.6 times”.

`COC(=O)C1=C(C)NC(C)=C(C(=O)OC)C1c1c(-c2ccc(OC)c(OC)c2)nc2sccn12` [Compound 43]: the “activity on ΔF508-CFTR” value in assay [1] was “inactive ^b”.

With `COC(=O)C1=C(C)NC(C)=C(C(=O)OC)C1c1c(Cl)nc2sc(C)cn12` [Compound 32], the “activity on ΔF508-CFTR” value in assay [1] was “inactive ^b”.

On to `CCOC(=O)C1=C(C)NC(C)=C(C(=O)OCC)C1c1c(C(F)(F)F)nc2sccn12` [Compound 16, Diethyl 2,6-Dimethyl-4-(6-(trifluoromethyl)imidazo[2,1-b]thiazol-5-yl)-1,4-dihydropyridine-3,5-dicarboxylate], for which the “nH (Hill coefficient)” value in assay [1] is given as 0.66. For the same compound, in assay [2], the “GPILSM relaxant potency” value is listed as “about 65 times”.

`COC(=O)C1=C(C)NC(C)=C(C(=O)OC)C1c1c(-c2cccc(C(F)(F)F)c2)nc2sccn12` [Compound 39]: the “nH (Hill coefficient)” value in assay [1] was determined as 1.01. The “GPILSM relaxant potency” value in assay [2] was “about 65 times”.

For the compound `COC(=O)C1=C(C)NC(C)=C(C(=O)OC)C1c1c(-c2cccc(OC)c2)nc2sccn12` [Compound 36], the “nH (Hill coefficient)” value in assay [1] was 1.5. Also, the “GPILSM relaxant potency” value in assay [2] is “about 65 times”.

Turning to `C=CCOC(=O)C1=C(C)NC(C)=C(C(=O)OCC=C)C1/C=C/c1ccccc1OC` [Compound 50, reference compound], the “nH (Hill coefficient)” value in assay [1] is given as 1.18.

With `COC(=O)C1=C(C)NC(C)=C(C(=O)OC)C1c1c(-c2cc(OC)c(OC)c(OC)c2)nc2sc(Cl)cn12` [Compound 44], the “activity on ΔF508-CFTR” value in assay [1] is “inactive ^b”. Further, the “intrinsic activity, inotropic effect” value in assay [4] is “less than 50%”. Further, the “intrinsic activity, chronotropic effect” value in assay [5] was below 40%.

Regarding `COC(=O)C1=C(C)NC(C)=C(C(=O)OC)C1c1c(Cl)nc2sc(Cl)cn12` [Compound 31], the “nH (Hill coefficient)” value in assay [1] is given as 1.04. Moreover, in assay [3], the “negative inotropic effect” value was “about 2.6 times”.

For the compound `C=CCOC(=O)C1=C(C)NC(C)=C(C(=O)OCC=C)C1c1c(-c2ccc(OC(F)(F)F)cc2)nc2sccn12` [Compound 21, Diallyl 2,6-Dimethyl-4-(6-(4-(trifluoromethoxy)phenyl)imidazo[2,1-b]thiazol-5-yl)-1,4-dihydropyridine-3,5-dicarboxylate], the “nH (Hill coefficient)” value in assay [1] is 1.09. In assay [2], the “GPILSM relaxant potency” value was “about 3 times”.

As for `CCOC(=O)C1=C(C)NC(C)=C(C(=O)OCC)C1c1cccc(Oc2ccccc2)c1` [Compound 48, reference compound], the “nH (Hill coefficient)” value in assay [1] is reported as 0.97.

`COC(=O)C1=C(C)NC(C)=C(C(=O)OC)C1c1c(-c2ccc(C(F)(F)F)cc2)nc2sccn12` [Compound 17, Dimethyl 2,6-Dimethyl-4-(6-(4-(trifluoromethyl)phenyl)imidazo[2,1-b]thiazol-5-yl)-1,4-dihydropyridine-3,5-dicarboxylate]: the “nH (Hill coefficient)” value in assay [1] came to 2.15. In addition, in assay [3], the “negative inotropic effect” value is recorded as “about 2.6 times”. The “GPILSM relaxant potency” value in assay [2] is “about 3 times”.

For `CCOC(=O)C1=C(C)NC(C)=C(C(=O)OCC)C1c1c(-c2ccccc2)nc2sc(C)cn12` [Compound 22, Diethyl 2,6-Dimethyl-4-(2-methyl-6-phenylimidazo[2,1-b]thiazol-5-yl)-1,4-dihydropyridine-3,5-dicarboxylate], in assay [1], the “nH (Hill coefficient)” value came out at 0.93.

In the case of `CCOC(=O)C1=C(C)NC(C)=C(C(=O)OCC)C1c1c(Cl)nc2sc(C)cn12` [Compound 25, Diethyl 4-(6-Chloro-2-methylimidazo[2,1-b]thiazol-5-yl)-2,6-dimethyl-1,4-dihydropyridine-3,5-dicarboxylate], the “nH (Hill coefficient)” value in assay [1] came to 0.86. Also, the “GPILSM relaxant potency” value in assay [2] was “about 65 times”.

For the compound `COC(=O)C1=C(C)NC(C)=C(C(=O)OC)C1c1c(-c2cc(OC)ccc2OC)nc2sc(C)cn12` [Compound 40], the “activity on ΔF508-CFTR” value in assay [1] is “inactive ^b”.

For the compound `COC(=O)C1=C(C)NC(C)=C(C(=O)OC)C1c1c(C(F)(F)F)nc2sccn12` [Compound 27], the “nH (Hill coefficient)” value in assay [1] worked out at 1.89.

On to `COC(=O)C1=C(C)NC(C)=C(C(=O)OC)C1c1c(C(F)(F)F)nc2sc(C)cn12` [Compound 28], for which the “nH (Hill coefficient)” value in assay [1] worked out at 0.88. In addition, the “GPILSM relaxant potency” value in assay [2] is “about 65 times”. In assay [4], the “intrinsic activity, inotropic effect” value was “less than 50%”. Moreover, in assay [5], the “intrinsic activity, chronotropic effect” value is below 40%.

With `COC(=O)C1=C(C)NC(C)=C(C(=O)OC)C1c1c(C)nc2sc(C)cn12` [Compound 30], in assay [1], the “activity on ΔF508-CFTR” value is “inactive ^b”. The “intrinsic activity, inotropic effect” value in assay [4] is “less than 50%”. The “intrinsic activity, chronotropic effect” value in assay [5] is on record as below 40%.

Consider `COC(=O)C1=C(C)NC(C)=C(C(=O)OC)C1c1c(C)nc2sc(Cl)cn12` [Compound 29], for which the “nH (Hill coefficient)” value in assay [1] is on record as 1.55. For the same compound, the “negative inotropic effect” value in assay [3] is “about 2.6 times”.

As to `COC(=O)C1=C(C)NC(C)=C(C(=O)OC)C1c1c(-c2ccc(OC(F)(F)F)cc2)nc2sccn12` [Compound 20, Dimethyl 2,6-Dimethyl-4-(6-(4-(trifluoromethoxy)phenyl)imidazo[2,1-b]thiazol-5-yl)-1,4-dihydropyridine-3,5-dicarboxylate], the “nH (Hill coefficient)” value in assay [1] is 1.8. The “GPILSM relaxant potency” value in assay [2] is recorded as “about 3 times”.

Consider `COC(=O)C1=C(C)NC(C)=C(C(=O)OC)C1c1ccccc1[N+](=O)[O-]` [nifedipine, reference compound], for which the “nH (Hill coefficient)” value in assay [1] turned out to be 2.58. Besides, the “potency increase in nonvascular smooth muscle compared to aortic strips” value in assay [2] (GPILSM vs aortic strips) was found to be 6 times.

For the compound `CCOC(=O)C1=C(C)NC(C)=C(C(=O)OCC)C1c1c(-c2ccc(C(F)(F)F)cc2)nc2sccn12` [Compound 18, Diethyl 2,6-Dimethyl-4-(6-(4-(trifluoromethyl)phenyl)imidazo[2,1-b]thiazol-5-yl)-1,4-dihydropyridine-3,5-dicarboxylate], the “nH (Hill coefficient)” value in assay [1] is 1.69.

Regarding `CCc1cn2c(C3C(C(=O)OC)=C(C)NC(C)=C3C(=O)OC)c(-c3cc(OC)ccc3OC)nc2s1` [Compound 42], the “activity on ΔF508-CFTR” value in assay [1] was “inactive ^b”.

With `C=CCOC(=O)C1=C(C)NC(C)=C(C(=O)OCC=C)C1c1c(-c2cc(OC)ccc2OC)nc2sccn12` [Compound 24, Diallyl 4-(6-(2,5-Dimethoxyphenyl)imidazo[2,1-b]thiazol-5-yl)-2,6-dimethyl-1,4-dihydropyridine-3,5-dicarboxylate], the “activity on ΔF508-CFTR” value in assay [1] is “inactive ^b”.

As to `COC(=O)C1=C(C)NC(C)=C(C(=O)OC)C1c1c(-c2cc(OC)c([N+](=O)[O-])cc2OC)nc2sc(Cl)cn12` [Compound 45], in assay [1], the “activity on ΔF508-CFTR” value was “inactive ^b”. The “GPILSM relaxant potency” value in assay [2] is reported as “about 65 times”. For the same compound, the pEC50 in assay [5] (read-out: EC50 of chronotropic negative activity, Probit analysis, ref RS1) was 4.73.

`COC(=O)C1=C(C)NC(C)=C(C(=O)OC)C1c1c(Cl)nc2sc(C)c(C)n12` [Compound 34]: the “nH (Hill coefficient)” value in assay [1] is given as 1.32.

As to `COC(=O)C1=C(C)NC(C)=C(C(=O)OC)C1c1c(-c2ccccc2)nc2n1CCS2` [Compound 23, Dimethyl 2,6-Dimethyl-4-(6-phenyl-2,3-dihydroimidazo[2,1-b]thiazol-5-yl)-1,4-dihydropyridine-3,5-dicarboxylate], the “activity on ΔF508-CFTR” value in assay [1] is “inactive ^b”.

Regarding `COC(=O)C1=C(C)NC(C)=C(C(=O)OC)C1c1c(-c2cc(OC)c(OC)cc2[N+](=O)[O-])nc2sccn12` [Compound 47], the “activity on ΔF508-CFTR” value in assay [1] was “inactive ^b”.

As a reminder, the pEC50 is the negative decadic logarithm of the EC50, by convention in mol/L.
